# Results as given in the supplement of paper PMC3493320.
# Test system: NCI-H295R
# Experiment: IC50 (antiproliferative, ATP content)
# Conditions: 48 h
# Procedure, shortened: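 Adrenocortical carcinoma cells were plated at 1500 per well in 1536-well plates in serum-free DMEM with ITS supplement, left overnight, then given library compounds by pin transfer at 8 final concentrations spanning 0.6 nM to 46 µM and held 48 h at 37 °C, 5% CO2. ATP was measured as CellTiter-Glo luminescence after 20 min at room temperature and scaled between vehicle and positive-control wells. A four-parameter logistic model was fitted to each series. The IC50 was taken from these fits, and compounds without a concentration response were recorded as above the top dose.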
row,Compound,IC50
1,CCC(=O)O[C@@](Cc1ccccc1)(c1ccccc1)[C@@H](C)CN(C)C.O=S(=O)(O)c1ccc2ccccc2c1,> 46 µM
2,CS(=O)(=O)O.N=C(N)Nc1ccc(C(=O)Oc2ccc3cc(C(=N)N)ccc3c2)cc1,> 46 µM
3,CCN(CC)CCNC(=O)C1C(C)=NC(/C=C2/C(=O)Nc3ccc(F)cc32)=C1C.O=C(O)CC(O)C(=O)O (stereo unspecified),> 46 µM
4,O=C(O)COc1ccccc1,> 46 µM
5,c1ccc2c(c1)sc1ccccc12,> 46 µM
6,ClC4=C(Cl)[C@]5(Cl)[C@@]2([H])[C@]([C@](Cl)4[C@](Cl)5Cl)([H])[C@H]3[C@@H]1O[C@@H]1[C@@H]2C3,> 46 µM
7,CC(C)(Oc1ccc(C2CCCc3ccccc32)cc1)C(=O)O (stereo unspecified),> 46 µM
8,NCCCNCCSP(=O)(O)O,> 46 µM
9,CCCC(C)(COC(N)=O)COC(N)=O,> 46 µM
10,CNC(=O)Oc1ccccc1C(=O)Nc1ccccc1,> 46 µM
11,CN[C@@H]1[C@@H](O[C@H]2O[C@H](CO)[C@@H](N)[C@H](O)[C@H]2O)O[C@H]2C[C@@H](N)[C@@H](O[C@H]3[C@H](O)[C@@H](O)[C@H](N)C[C@@H]3N)O[C@@H]2[C@@H]1O,> 46 µM
12,CC1=C2[C@H]3OC(=O)[C@@H](C)[C@@H]3CC[C@@]2(C)C=CC1=O,> 46 µM
13,COC(=O)[C@@H](N)CCCN/C(N)=N/[N+](=O)[O-],> 46 µM
14,CCOC(=S)SSC(=S)OCC,> 46 µM
15,C[C@]12CCC(=O)C(O)=C1CC[C@@H]1[C@@H]2CC[C@]2(C)C(=O)CC[C@@H]12,> 46 µM
16,CCOc1ccc2c3c1O[C@H]1[C@@H](O)C=C[C@H]4[C@@H](C2)N(C)CC[C@@]341,> 46 µM
17,CC(C)c1cccc(C(C)C)c1O,> 46 µM
18,O=[N+]([O-])c1ccccc1,> 46 µM
19,Cc1cccc(C)c1NC1=NCCCS1,> 46 µM
20,O=C(CCCN1CCC(n2c(=O)[nH]c3ccccc32)CC1)c1ccc(F)cc1,> 46 µM
21,O=C(CCCN1CCC2(CC1)C(=O)NCN2c1ccccc1)c1ccc(F)cc1,> 46 µM

# Continued, values first:
row,IC50,Compound
1,> 46 µM,NCC1CCC(C(=O)O)CC1 (stereo unspecified)
2,> 46 µM,Cc1ccc(C(C)C)cc2c(C)ccc1-2
3,> 46 µM,Brc1c(NC2=NCCN2)ccc2nccnc12
4,> 46 µM,CC(C)NCC(O)c1ccc(NS(C)(=O)=O)cc1 (stereo unspecified)
5,> 46 µM,CO[C@H]1C[C@@H]2CC[C@@H](C)[C@@](O)(O2)C(=O)C(=O)N2CCCC[C@H]2C(=O)O[C@H]([C@H](C)C[C@@H]2CC[C@@H](OC(=O)C(C)(CO)CO)[C@H](OC)C2)CC(=O)[C@H](C)/C=C(\C)[C@@H](O)[C@@H](OC)C(=O)[C@H](C)C[C@H](C)/C=C/C=C/C=C/1C
6,> 46 µM,Cc1ncc(C[n+]2csc(CCOP(=O)(O)OP(=O)(O)O)c2C)c(N)n1.[Cl-]
7,> 46 µM,COc1ccc(/C=C/C(=O)O)cc1
8,> 46 µM,CC1(C)Oc2ccc(C#N)cc2[C@@H](N2CCCC2=O)[C@@H]1O
9,> 46 µM,Cc1cc(NS(=O)(=O)c2ccc(N)cc2)no1
10,> 46 µM,O=C1CCC(=O)N1CO
11,> 46 µM,CN1C(C(=O)Nc2ccccn2)C(=O)c2sc(Cl)cc2S1(=O)=O (stereo unspecified)
12,> 46 µM,CCCCC(CC)CCC(CC(C)C)OS(=O)(=O)[O-].[Na+] (stereo unspecified)
13,> 46 µM,O=C(CCCN1CC=C(n2c(=O)[nH]c3ccccc32)CC1)c1ccc(F)cc1
14,> 46 µM,O=[C@]([C@H]2N(CCC)CCCC2)NC1=C(C)C=CC=C1C.Cl
15,> 46 µM,C=CC(C)(O)CC/C=C(\C)CCC=C(C)C (stereo unspecified)
16,> 46 µM,CCc1cccc(CC)c1NC(=O)CN(CC(=O)O)CC(=O)O
17,> 46 µM,Cc1cn([C@H]2C[C@H](F)[C@@H](CO)O2)c(=O)[nH]c1=O
18,> 46 µM,NC(=O)c1ccccc1O
19,> 46 µM,CS(=O)(=O)OCC(O)C(O)COS(C)(=O)=O (stereo unspecified)
20,> 46 µM,Cl.c1ccc2c(c1)CCCC2C1=NCCN1 (stereo unspecified)
21,> 46 µM,CC(C)COC(=O)c1ccc(N)cc1
22,> 46 µM,C[n+]1ccccc1C=NO.[Cl-]
23,> 46 µM,Nc1ccc(C=Cc2ccc(N)cc2S(=O)(=O)O)c(S(=O)(=O)O)c1
24,> 46 µM,O=C(CCCN1CCC(O)(c2ccc(Br)cc2)CC1)c1ccc(F)cc1
25,> 46 µM,CCCCCCCCCCCCCC(=O)OCC(COP(=O)([O-])OCC[N+](C)(C)C)OC(=O)CCCCCCCCCCCCC (stereo unspecified)
26,> 46 µM,CC(=O)Nc1ccc(S(=O)(=O)Nc2ccc([N+](=O)[O-])cc2)cc1
27,> 46 µM,Nc1ccc(S(=O)(=O)Nc2ccnn2-c2ccccc2)cc1
28,> 46 µM,NS(=O)(=O)c1ccc(NC(=O)CCC(=O)O)cc1
29,> 46 µM,CC(C)(C)NCC(O)c1ccc(O)c(CO)c1 (stereo unspecified)
30,> 46 µM,COc1ccc(C(=O)N2CCN(CC(=O)N3CCOCC3)CC2)cc1
